# From ChEMBL document CHEMBL4715878 (J Med Chem, 2020)
# Calls of active or inactive are those of the source. The rule behind the calls is not given here.
# Tests used:
# MCF7 [1] = test: Antiproliferative activity against human MCF7 cells assessed as lethality at 10 uM after 48 hrs by SRB assay relative to control; type: functional
# [2] = system: Panel NCI-60 (60 carcinoma cell lines); test: Antiproliferative activity against human NCI60 cells assessed as lethality at 10 uM after 48 hrs by SRB assay relative to control; type: functional
# [3] = biological target: T1, Receptor tyrosine-protein kinase erbB-2 (Homo sapiens, UniProt P04626); test: Inhibition of HER2 (unknown origin) in presence of substrate incubated for 30 mins by ADP-Glo assay
# T1 sequence (P04626 whole entry): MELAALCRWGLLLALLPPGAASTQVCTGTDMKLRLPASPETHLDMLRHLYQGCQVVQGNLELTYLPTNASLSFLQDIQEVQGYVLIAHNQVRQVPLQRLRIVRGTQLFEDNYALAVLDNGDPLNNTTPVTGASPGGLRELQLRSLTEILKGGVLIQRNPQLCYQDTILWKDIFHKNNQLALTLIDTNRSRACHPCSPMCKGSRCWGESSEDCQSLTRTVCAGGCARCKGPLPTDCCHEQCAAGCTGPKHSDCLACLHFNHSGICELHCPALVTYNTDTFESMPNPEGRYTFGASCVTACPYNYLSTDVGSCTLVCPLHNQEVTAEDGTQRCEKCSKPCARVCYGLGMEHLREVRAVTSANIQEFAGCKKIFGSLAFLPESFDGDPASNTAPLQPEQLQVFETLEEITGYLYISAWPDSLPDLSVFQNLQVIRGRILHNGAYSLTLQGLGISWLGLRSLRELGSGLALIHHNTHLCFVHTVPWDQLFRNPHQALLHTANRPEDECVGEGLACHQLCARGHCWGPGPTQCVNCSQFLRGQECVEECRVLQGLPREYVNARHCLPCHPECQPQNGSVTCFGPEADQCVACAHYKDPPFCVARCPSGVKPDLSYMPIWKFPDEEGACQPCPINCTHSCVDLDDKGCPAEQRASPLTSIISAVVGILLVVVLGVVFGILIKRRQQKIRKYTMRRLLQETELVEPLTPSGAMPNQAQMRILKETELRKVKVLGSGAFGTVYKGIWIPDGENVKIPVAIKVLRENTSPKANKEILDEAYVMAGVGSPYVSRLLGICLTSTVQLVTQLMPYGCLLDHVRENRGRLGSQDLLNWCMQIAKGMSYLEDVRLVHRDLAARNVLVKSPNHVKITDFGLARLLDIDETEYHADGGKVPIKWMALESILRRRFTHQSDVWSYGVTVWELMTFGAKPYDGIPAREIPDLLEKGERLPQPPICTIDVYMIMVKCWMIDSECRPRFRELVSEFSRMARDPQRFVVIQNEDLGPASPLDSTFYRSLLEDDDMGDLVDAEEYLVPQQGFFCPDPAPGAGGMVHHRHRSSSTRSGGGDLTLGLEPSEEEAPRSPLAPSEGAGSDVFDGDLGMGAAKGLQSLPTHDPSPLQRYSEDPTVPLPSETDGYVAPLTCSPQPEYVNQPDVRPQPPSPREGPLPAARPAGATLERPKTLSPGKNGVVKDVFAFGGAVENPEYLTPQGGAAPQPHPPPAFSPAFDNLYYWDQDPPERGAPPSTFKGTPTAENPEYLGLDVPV
# MCF7 [4] = test: Induction of apoptosis in human MCF7 cells assessed as accumulation in early apoptotic cells at 5 uM incubated for 72 hrs by Annexin V-FITC/PI staining based flow cytometry analysis; type: functional, cell-based
# T47D = test: Antiproliferative activity against human T47D cells assessed as cell growth inhibition after 48 hrs by SRB assay; type: functional; settings: pooled result: one value given for 5 cell lines, strains, targets or settings
# MDA-MB-468 [5] = test: Antiproliferative activity against human MDA-MB-468 cells assessed as cell growth inhibition at 10 uM after 48 hrs by SRB assay relative to control; type: functional; settings: read-out: GI
# [6] = Antiproliferative activity against human BC assessed as cell growth inhibition at 10 uM after 48 hrs by SRB assay relative to control; type: functional; settings: read-out: GI
# MDA-MB-231 [7] = test: Induction of apoptosis in human MDA-MB-231 cells assessed as accumulation in late apoptotic cells at 5 uM incubated for 72 hrs by Annexin V-FITC/PI staining based flow cytometry analysis; type: functional, cell-based
# BT-474 [8] = test: Induction of apoptosis in human BT474 cells assessed as increase in early apoptotic cells at 0.5 to 5 uM incubated for 72 hrs by Annexin V-FITC/PI staining based flow cytometry analysis relative to control; type: functional; settings: dose 0.5-5 µM
# MDA-MB-231 [9] = test: Antiproliferative activity against human MDA-MB-231 cells assessed as reduction in cell viability incubated for 72 hrs by WST8 assay; type: functional, cell-based; settings: MDA-MB-231, 72 h
# BT-474 [10] = test: Induction of apoptosis in human BT474 cells assessed as increase in late apoptotic cells at 0.5 to 5 uM incubated for 72 hrs by Annexin V-FITC/PI staining based flow cytometry analysis relative to control; type: functional; settings: dose 0.5-5 µM
# BT-474 [11] = test: Induction of apoptosis in human BT474 cells assessed as increase in early apoptotic cells incubated for 72 hrs by Annexin V-FITC/PI staining based flow cytometry analysis; type: functional, cell-based; settings: dose 0.1-5 µM
# [12] = system: Panel NCI-60 (60 carcinoma cell lines); test: Antiproliferative activity against human NCI60 cells assessed as mean cell growth at 10 uM after 48 hrs by SRB assay relative to control; type: functional
# AU565 [13] = test: Down regulation of HER2 expression in human AU565 cells at 0.5 IC50 incubated for 72 hrs by Western blot analysis; type: functional, cell-based
# MDA-MB-231 [14] = test: Induction of apoptosis in human MDA-MB-231 cells assessed as accumulation in early apoptotic cells at 5 uM incubated for 72 hrs by Annexin V-FITC/PI staining based flow cytometry analysis; type: functional, cell-based
# MCF7 [15] = test: Antiproliferative activity against human MCF7 cells assessed as reduction in cell viability incubated for 72 hrs by WST8 assay; type: functional, cell-based; settings: MCF7, 72 h
# MDA-MB-468 [16] = test: Antiproliferative activity against human MDA-MB-468 cells assessed as cell growth inhibition after 48 hrs by SRB assay; type: functional
# [17] = biological target: T1, Receptor tyrosine-protein kinase erbB-2; test: Inhibition of wild-type HER2 (unknown origin) at 0.5 nM in presence of substrate incubated for 30 mins by ADP-Glo assay relative to control
# [18] = Antiproliferative activity against human BC assessed as lethality at 10 uM after 48 hrs by SRB assay relative to control; type: functional
# [19] = Antiproliferative activity against human MDA-MB-231 cells assessed as lethality at 10 uM after 48 hrs by SRB assay relative to control; type: functional, MDA-MB-23
# MDA-MB-468 [20] = test: Antiproliferative activity against human MDA-MB-468 cells assessed as lethality at 10 uM after 48 hrs by SRB assay relative to control; type: functional
# MCF7 [21] = test: Induction of apoptosis in human MCF7 cells assessed as accumulation in late apoptotic cells at 5 uM incubated for 72 hrs by Annexin V-FITC/PI staining based flow cytometry analysis; type: functional, cell-based
# BT-474 [22] = test: Antiproliferative activity against human BT474 cells assessed as reduction in cell viability incubated for 72 hrs by WST8 assay; type: functional, cell-based; settings: BT-474, 72 h
# AU565 [23] = test: Antiproliferative activity against human AU565 cells assessed as reduction in cell viability incubated for 72 hrs by WST8 assay; type: functional, cell-based; settings: AU565, 72 h
structure (smiles),measurement,setting,value
Cc1cccc(Oc2ccc(Nc3ncnc4ccc(NC(=O)CN5CCN(C)CC5)cc34)cc2Cl)c1,Activity,MCF7 [1],18%
same,Activity,[2],1.3%
same,IC50,[3],0.0054 µM
same,Activity,MCF7 [4],inactive
same,GI50,T47D,1.21 µM
same,inhibition of growth at 10 µM,MDA-MB-468 [5],18.8%
same,inhibition of growth at 10 µM,[6],≤ 78.7%
same,Activity,MDA-MB-231 [7],inactive
same,fold change (FC),BT-474 [8],<=6
same,IC50,MDA-MB-231 [9],4.5 µM
same,fold change (FC),BT-474 [10],<=3
same,Activity,BT-474 [11],Dose-dependent effect
same,Activity,[12],11.85%
same,Activity,AU565 [13],inactive
same,Activity,MDA-MB-231 [14],inactive
same,IC50,MCF7 [15],2.65 µM
same,GI50,MDA-MB-468 [16],0.4 µM
same,inhibition,[17],3%
same,Activity,[18],<=78.7%
same,Activity,[19],18%
same,Activity,MDA-MB-468 [20],18%
same,Activity,MCF7 [21],inactive
same,IC50,BT-474 [22],0.081 µM
same,IC50,AU565 [23],0.135 µM
